Key:
[1] = system: KLF15 promoter (pEZX-FR03hKLF5p human podocytes); test: Lipopolysaccharide treatment in human podocytes, KLF15 reporter activity; type: cell-based; conditions: as compared to DMSO
Method: (§1) Differentiated pEZX-FR03hKLF5p human podocytes were treated with 25 μg/ml lipopolysaccharide (LPS) or vehicle and 1 μM KLF15 agonist or vehicle control for 24 hours. Firefly and renilla luciferase assay were measured initially to determine relative KLF15 reporter activity.

[2] = system: KLF15 promoter (pEZX-FR03hKLF15p human podocytes); test: KLF15 reporter high-throughput screening assay in human podocytes (firefly/renilla luciferase); type: cell-based; conditions: for fold induction at 1 µM: Homo sapiens, NCI library hits, 24 hours, read-out: Fold Change (KLF15 reporter activity)
Method: Briefly, these podocytes proliferate under permissive conditions (gamma interferon at 33° C.), but differentiate under nonpermissive conditions (37° C.).
The amplified fragment contains MluI and PmeI RE sites and was subcloned into the MluI and PmeI cloning site of the pEZX-FR03 Firefly luciferase (FLuc) and Renilla luciferase (Rluc) reporter cloning vector (GeneCopoeia) to generate pEZX-FR03hKLF15p. Following verification of the sequence by restriction and μsequencing, the pEZX-FR03hKLF15p construct (which contains a puromycin resistance cassette) was transfected into human podocytes followed by selection in puromycin-containing media for 2 weeks. Surviving podocytes clones were pooled together for further analysis.
The library of compounds from the National Cancer Institute (Approved Oncology Drugs Set VI; Natural Products Set III; Diversity Set V; and Mechanistic Diversity Set II) were added to a final concentration of 1 μM in 0.5% DMSO in the low FBS cell culture media (0.2% FBS) using liquid handling system PipetMax (Gilson). After 24 hours incubation at 37° C., the Luc-Pair™ Duo-Luciferase HT Assay Kit (GeneCopoeia LF015) were used and firefly and renilla luciferase activity was determined using the SpectraMax M3 (Molecular Devices). Positive controls were all-trans retinoic acid (atRA) (1 μM) and dexamethasone (DEX) (1 μM). Negative controls were DMSO and cell-free media.
(§2) To identify small molecule inducers of KLF15 expression in human podocytes, human podocytes were generated with a dual reporter, firefly luciferase directed at the KLF15 promoter region and renilla luciferase (pEZX-FR03hKLF15p). […] The positive controls were inducers of KLF15 expression, dexamethasone (DEX) and all-trans retinoic acid (atRA), and […] and cell-free wells served as negative controls.

[3] = system: KLF15 promoter with mutation in the GRE (pEZX-FR03hKLF5p-mutant podocytes); test: GR-mutant KLF15 reporter assay; type: cell-based, human; conditions: as compared to DMSO
[4] = system: human podocytes; test: Cell viability of podocytes (renilla activity, MTS assay); type: cell-based; conditions: for toxicity to human podocytes: analogue screen
Method: as §1
(§3) Differentiated pEZX-FR03hKLF5p human podocytes were treated with 0.4 μg/ml adriamycin (ADR) or vehicle and 1 μM KLF15 agonist or vehicle control for 24 hours. Firefly and renilla luciferase assay were measured initially to determine relative KLF15 reporter activity.
To assess cell viability, the CellTiter 96® AQueous One Solution Reagent (Promega) was added to the culture media and plates were incubated for 2 hours at 37° C. with 5% CO2.

[5] = system: KLF15 and Synaptopodin expression; test: Real-time PCR of KLF15 and synaptopodin in podocytes under LPS; type: cell-based, human; conditions: podocytes under LPS conditions, vs DMSO
Method: (§4) Total RNA from cells was extracted by using TRIzol (Life Technologies). First-strand cDNA was prepared from total RNA (up to 1.25 μg) using the SuperScript™ IV VILO™ Master Mix (Life Technologies), and cDNA was amplified in triplicate using PowerUp™ SYBR™ Green Master Mix on an ABI QuantStudio3 (Applied Biosystems). Primers for human and mouse genes were designed using NCBI Primer-BLAST and validated for efficiency before application (Table 1). Data were normalized to housekeeping genes (GAPDH or ACTB) and presented as a fold increase compared with RNA isolated from the control group using the ΔΔCT method.

[6] = system: FVB/n mice; test: LPS-induced proteinuric murine model; type: in vivo, mouse; conditions: LPS proteinuric murine model, concurrent treatment, vs DMSO
Method: In the LPS-induced proteinuric model, all 8-week-old FVB/n mice were initially treated with LPS [intraperitoneal (IP), 10 μg/g, Sigma-Aldrich] or sterile normal saline (IP) at 0- and 24-hour time points as previously described (17). […] Urine was collected and mice were euthanized 48 hours post-LPS treatment.
Urine albumin was quantified by ELISA using a kit from Bethyl Laboratory Inc. Urine creatinine levels were measured in the same samples using the Creatinine Colorimetric Assay Kit (500701; Cayman Chemical) as per manufacturer's protocol.
Briefly, mice were perfused with PBS containing 2.5 mg/ml iron oxide and 1% BSA. At the end of perfusion, kidneys were removed, decapsulated, minced into 1 mm^3 pieces, and digested in PBS containing 1 mg/ml collagenase A. Digested tissue was subsequently passed through a 100 μm cell strainer and collected by centrifugation. The pellet was resuspended in 1 ml PBS and glomeruli were collected using a magnet. The purity of glomeruli was verified under microscopy. Total RNA was isolated from kidney glomeruli of mice using the RNeasy Kit (Qiagen, Germantown, MD).
as §4
Transmission Electron Microscopy (TEM) was done in the Central Microscopy Imaging Center at Stony Brook Medicine. Briefly, after embedding the kidney tissues in epoxy resin, ultrathin sections were stained with uranyl acetate and lead citrate, then mounted on a copper grid, and photographed under a FEI BioTwin G2 Transmission Electron Microscope with AMT XR-60 CCD digital Camera (FEI).

[7] = system: KLF15 promoter (pEZX-FR03hKLF5p human podocytes); test: Adriamycin treatment in human podocytes, KLF15 reporter activity; type: cell-based; conditions: as compared to DMSO-treated podocytes
Method: as §3

[8] = system: KLF15 promoter (pEZX-FR03hKLF15p human podocytes); test: Half maximal effective concentration (EC50) of KLF15 reporter activity; type: cell-based; conditions: Homo sapiens; KLF15 reporter activity, dose-response; read-out: EC50
Method: The EC50 was determined using nonlinear regression and then choosing the equation of Sigmoidal function, 4PL method (X is log(concentration); or the equation of log(agonist) vs. response—variable slope).
as §2

[9] = system: differentiated human podocytes; test: Actin stress fiber formation and KLF15 immunocytochemistry; type: cell-based; conditions: LPS-treated podocytes
Method: To determine actin stress fiber formation, differentiated human podocytes were treated with 25 μg/ml LPS or vehicle and 1 μM KLF15 agonist or vehicle control for 24 hours. Subsequently, podocytes were fixed and stained for F-actin using Alexa Fluor 647 Phalloidin (Life Technologies). Fixation, permeabilization, and staining with phalloidin were performed as per the manufacturer's protocol. […] Briefly, phalloidin staining pattern in each cell was classified into the following types: Type A (90% of cell area filled with thick cables), Type B (no thick cables but some cables present), and Type C (no cables visible in the central area of the cell). Unless specified, 100-200 cells were quantified in a blinded manner for each group in three independent experiments.
Differentiated human podocytes were initially washed with phosphate-buffered saline (PBS) and subsequently fixed with 3.7% formaldehyde in the growth medium. Podocytes were washed and permeabilized with 0.25% Triton X-100, and then blocked in 10% normal horse serum (NHS) and incubated with rabbit anti-KLF15 antibody overnight. The next day, cells were washed with PBS and incubated in Donkey anti-Rabbit IgG (H+L) Secondary Antibody, Alexa Fluor™ 568 (Invitrogen) in 10% NHS. Subsequently, cells were washed and incubated with Hoechst (Thermo Fisher Scientific) before mounting.

[10] = as compared to DMSO-treated podocytes

Row | SMILES | KLF15 activity in the setting of LPS treatment [1] | KLF15 activity as compared to DEX-treated podocytes [2] | KLF15-mutant reporter activity [3] | toxicity to human podocytes [4] | renilla activity (cell viability) in the setting of LPS treatment [4, 10] | KLF15 and Synaptopodin expression [5] | albuminuria [6] | fold induction at 1 µM [2] | cell viability (renilla activity and MTT assay) in the setting of ADR [4, 10] | renilla activity in dose-response ([4]; higher doses (10^4 nM), relative to DMSO) | KLF15 activity in the setting of adriamycin (ADR) [7] | EC50 [8] [nM] | KLF15 expression and actin stress fiber formation (immunostaining) [9]
1 | CSc1ccc(NC(=O)c2ccc(O)cc2)cc1 [BT501] | maintained the elevated KLF15 activity | higher KLF15 activity | induced KLF15 activity | no observed toxicity | – | – | – | – | – | – | – | – | –
2 | CSc1ccc(NC(=O)Nc2ccc(C#N)cn2)cc1 [BT502] | maintained the elevated KLF15 activity | higher KLF15 activity | induced KLF15 activity | no observed toxicity | restored renilla activity | – | – | – | – | – | – | – | –
3 | CSc1ccc(NC(=O)Nc2cc(C)ccn2)cc1 [C-7, 1-(4-Methylpyridin-2-yl)-3-(4-methylsulfanylphenyl)urea] | maintained KLF15 activity | – | induced similar KLF15 activity | – | – | restored | significantly abrogated albuminuria | 3.17 | maintained | significant increase in renilla activity | induced KLF15 activity | 11.9 | restored KLF15 expression and actin stress fiber formation
4 | Nc1ccccc1-n1nc2ccc3ccccc3c2n1 [C-9, 2-benzo[e]benzotriazol-2-ylaniline] | – | – | induced similar KLF15 activity | – | – | – | – | 2.72 | – | – | induced KLF15 activity | 76.3 | –
5 | O=C(Nc1ccc2ccccc2c1)c1ccc(Cl)cc1Cl [C-15, 2,4-dichloro-N-(naphthalen-2-yl)benzamide] | – | – | induced similar KLF15 activity | – | – | – | – | 2.97 | – | – | induced KLF15 activity | 10.9 | –

Reference: patent US20250186411A1, “Methods of Treating Disorders Associated with Overactivation of IKKB” (The United States Government as represented by the …, priority 2023, published 2025)
